According to ChEMBL document CHEMBL1158017, “28-deacetylbelamcandal, a tumor-promoting triterpenoid from Iris tectorum” (J Nat Prod, 1999):

Columns and labels:
HL-60 [1] = assay: Induction of TNFalpha release from human HL-60 cells after 24 hrs by ELISA; format: functional
Mus musculus [2] = species: Mus musculus; assay: Carcinogenesis in CD1 mouse skin assessed as tumor incidence at 400 nmol twice a week for 20 weeks; format: functional
Oryctolagus cuniculus = species: Oryctolagus cuniculus; assay: Activation of rabbit brain PKC assessed as [32P] incorporation in histone 3-S from [gamma32P]ATP
[3] = Displacement of [3H]PDBu from partially purified rabbit brain PKC; design: species or system Oryctolagus cuniculus
HL-60 [4] = assay: Induction of human HL-60 cell adhesion after 48 hrs; format: functional
Mus musculus [5] = species: Mus musculus; assay: Carcinogenesis in CD1 mouse skin assessed as tumor incidence at 4 nmol twice a week for 20 weeks; format: functional

SMILES | ED100 (HL-60 [1]) | Activity (Mus musculus [2]) | ED50 (Oryctolagus cuniculus) | IC50 [3] | Activity (HL-60 [4]) | Activity (Mus musculus [5])
C=C(/C=C/C=C(/CO)[C@@H]1CC[C@]2([C@H](CCCO)/C(=C(/C)C=O)CC[C@]2(C)O)[C@H]1O)CCC=C(C)C | 3000 nM | 64.3% | 300 nM | 200 nM | 500 nM | 
CCCCCCCCCCCCCC(=O)O[C@@H]1[C@@H](C)[C@@]2(O)[C@@H](C=C(CO)C[C@]3(O)C(=O)C(C)=C[C@@H]23)[C@@H]2C(C)(C)[C@]12OC(C)=O [PHORBOL MYRISTATE ACETATE] | 6 nM |  | 15 nM | 15 nM | 3 nM | 93.3%
